Values of other authors, collected in publication PMC4494773, “Design, synthesis, antiviral and cytotoxic evaluation of novel acyclic phosphonate nucleotide analogues with a 5,6-dihydro-1H-[1,2,3]triazolo[4,5-d]pyridazine-4,7-dione system” (Monatshefte Fur Chemie, 2014).

Key:
[1] = tested on: HIV-1; design: method as in PMID 12901908
[2] = tested on: viral helicase from HCV; design: method as in PMID 11959550
[3] = tested on: viral helicase from West Nile Virus (WNV); design: method as in PMID 11959550

| Structure (SMILES) | antiviral activity against HIV-1 [1] | antiviral activity by inhibition of a viral helicase [2] | antiviral activity by inhibition of a viral helicase [3] |
| --- | --- | --- | --- |
| NC(=O)c1cn(C2CC(CCP(=O)(O)O)CC2O)nn1 (stereo not drawn) [compound 2] | displayed antiviral activity |  |  |
| O=c1[nH][nH]c(=O)c2c1ncn2C1OC(CO)C(O)C1O (stereo not drawn) [compound 5] |  | exhibited antiviral activity by inhibition of a viral helicase | exhibited antiviral activity by inhibition of a viral helicase |
| COC1C(O)C(CO)OC1n1cnc2c(=O)[nH][nH]c(=O)c21 (stereo not drawn) [compound 6] |  | exhibited antiviral activity by inhibition of a viral helicase | exhibited antiviral activity by inhibition of a viral helicase |
| NC(=O)c1nnn(C2CC(CO)CC2O)c1N (stereo not drawn) [compound 1] | displayed antiviral activity |  |  |
